Experimental data as given in BindingDB's records for doi:10.1016/j.bmcl.2020.127000 (Ajinomoto, 2020).
pEC50: −log10 of the molar value.

Experiment: Positive allosteric modulation of human TIR2/TIR3 expressed in PEAKrapid cells assessed as potentiation of sucrose-induced intracellular calcium influx by measuring sucrose EC50 at 30 uM measured for 120 secs by fluorescence based assay

SMILES	pEC50
CC(C)C[C@H](NC(=O)[C@@H](NC(=O)OC(C)(C)C)C1CCCCC1)C(=O)NC(C)(C)CC(=O)Nc1cncc(C(=O)O)c1N	2.43
CC(C)(CC(=O)Nc1cncc(C(=O)O)c1N)NC(=O)[C@H]1CC[C@@H](N)CC1	2.14
CC(C)(CC(=O)Nc1cncc(C(=O)O)c1N)NC(=O)c1cccc(N)c1	1.97
CC(C)(CC(=O)Nc1cncc(C(=O)O)c1N)NC(=O)[C@@H](N)c1ccccc1	2.02
CC(C)(CC(=O)Nc1cncc(C(=O)O)c1N)NC(=O)c1ccc(N)cc1	2.05
CC(C)(CC(=O)Nc1cncc(C(=O)O)c1N)NC(=O)c1cccc2c1CCCC2	2.05
CC(C)(CC(=O)Nc1cncc(C(=O)O)c1N)NC(=O)C1(c2ccccc2)CC1	2.08
CC(C)(CC(=O)Nc1cncc(C(=O)O)c1N)NC(=O)[C@H]1CC[C@H](N)CC1	2.11
CC(C)C[C@H](NC(=O)[C@@H](N)C1CCCCC1)C(=O)NC(C)(C)CC(=O)Nc1cncc(C(=O)O)c1N	2.25
CC[C@H](C)[C@H](NC(=O)[C@@H](N)C1CCCCC1)C(=O)NC(C)(C)CC(=O)Nc1cncc(C(=O)O)c1N	2.25
CC(C)(CC(=O)Nc1cncc(C(=O)O)c1N)NC(=O)[C@@H](NC(=O)[C@@H](N)C1CCCCC1)C1CCCCC1	2.60
CC(C)(CC(=O)Nc1cncc(C(=O)O)c1N)NC(=O)C1(N)CCCCC1	2.12
CC(C)(CC(=O)Nc1cncc(C(=O)O)c1N)NC(=O)[C@H](N)C1CCCCC1	2.11
CC(C)(CC(=O)Nc1cncc(C(=O)O)c1N)NC(=O)[C@@H]1CCC[C@H](N)C1	2.01
CC(C)(CC(=O)Nc1cncc(C(=O)O)c1N)NC(=O)[C@@H](N)C1CCCCC1	2.59
CC[C@H](C)[C@H](NC(=O)[C@@H](NC(=O)OC(C)(C)C)C1CCCCC1)C(=O)NC(C)(C)CC(=O)Nc1cncc(C(=O)O)c1N	2.48
CC(C)(CC(=O)Nc1cncc(C(=O)O)c1N)NC(=O)[C@@H](N)CC1CCCCC1	2.14

Second part, the molecule after the results:

pEC50	SMILES
2.00	CCCCCCCC/C=C\CCCCCCCC(=O)NC(C)(C)CC(=O)Nc1cncc(C(=O)O)c1N
2.21	CC(C)(CC(=O)Nc1cncc(C(=O)O)c1N)NC(=O)C1CCCCC1
1.96	CC(C)(CC(=O)Nc1cncc(C(=O)O)c1N)NC(=O)CCC1CCCCC1
2.03	CC(C)(CC(=O)Nc1cncc(C(=O)O)c1N)NC(=O)C(C)(C)C
2.13	CC(C)(CC(=O)Nc1cncc(C(=O)O)c1N)NC(=O)C[C@@H]1CCNC1
2.27	CC(C)(CC(=O)Nc1cncc(C(=O)O)c1N)NC(=O)CC1CCCCC1
2.11	CCCCCCC(=O)NC(C)(C)CC(=O)Nc1cncc(C(=O)O)c1N
1.95	CC(C)(CC(=O)Nc1cncc(C(=O)O)c1N)NC(=O)c1ccccc1
2.09	CC(C)(C)CC(=O)NC(C)(C)CC(=O)Nc1cncc(C(=O)O)c1N
2.06	CC(C)(CC(=O)Nc1cncc(C(=O)O)c1N)NC(=O)CC[C@@H](N)Cc1ccccc1
1.93	CCCCCCCCCCCC(=O)NC(C)(C)CC(=O)Nc1cncc(C(=O)O)c1N
2.37	CC(C)(CC(=O)Nc1cncc(C(=O)O)c1N)NC(=O)CC1(CN)CCCCC1
1.84	CC(C)(CC(=O)Nc1cncc(C(=O)O)c1N)NC(=O)C1CCNCC1
1.99	CCCCCCCC(=O)NC(C)(C)CC(=O)Nc1cncc(C(=O)O)c1N
2.24	CC(C)C[C@H](N)C(=O)NC(C)(C)CC(=O)Nc1cncc(C(=O)O)c1N
2.10	CC(C)(CC(=O)Nc1cncc(C(=O)O)c1N)NC(=O)C1CCNC1 (centres undefined)
2.03	CC(C)[C@H](N)C(=O)NC(C)(C)CC(=O)Nc1cncc(C(=O)O)c1N
2.29	CC(C)(CC(=O)Nc1cncc(C(=O)O)c1N)NC(=O)CC1CCCC1
2.12	CC(C)(CC(=O)Nc1cncc(C(=O)O)c1N)NC(=O)C[C@H]1CCNC1
2.14	CC(C)CC(=O)NC(C)(C)CC(=O)Nc1cncc(C(=O)O)c1N
2.18	CCCCCC(=O)NC(C)(C)CC(=O)Nc1cncc(C(=O)O)c1N
2.10	CC(C)C(=O)NC(C)(C)CC(=O)Nc1cncc(C(=O)O)c1N
